Experimental data taken from patent US20030069194A1, “Inhibition of viral replication by targeting RNA-DNA complexes” (priority 2001, published 2003).
Structures can show the parent of a compound that is named as a salt.

Legend:
[1] = tested on: 18C-18R duplex (RNase H substrate of HIV-1 RT); test: RT-induced RNase H cleavage of the 18C-18R duplex (gel assay); format: biochemical; conditions: for hierarchy of the extent of inhibition of RT-induced cleavage: 18C-18R duplex, aminoglycosides 312.5 μM, FIG. 1b, 1d; for inhibition of RT-induced cleavage at the primary site: FIG. 1c
From the text: The first model oligonucleotide was a 18mer chimeric duplex (18C-18R). 18C-18R mimics a RNase H substrate during minus-strand strong-stop synthesis. (FIG. 1a). Mueller, U. et al. Crystal structure of an eight-base pair duplex containing the 3′-DNA RNA-5′ junction formed during initiation of minus-strand synthesis of HIV replication, Biochemistry 37,12005-12011 (1998). […] Note that RT cleaves the RNA strand (18R) opposite the chimeric RNA-DNA strand (18C) at three sites (FIGS. 1a, b). The primary cleavage site lies between base positions +1 and +2 (counting from the RNA-DNA junction in the 5′ direction on the cleaved RNA strand). Two other minor cleavage sites lie between positions +3 and +4 and between positions −1 and +1, with the former site being cleaved to a greater extent than the latter site. Götte, M. et al., HIV-1 Reverse transcriptase-associated RNase H cleaves RNA/RNA in arrested complexes: Implications for the mechanism by which RNase H discriminates between RNA/RNA and RNA/DNA, EMBO J. 14, 833-841 (1995).
Recombinant HIV-1 RT p66 was isolated from Escherichia coli JM 109. Pandey, V. N. et al, Role of methionine 184 of human immunodeficiency virus type-1 reverse transcriptase in the polymerase function and fidelity of DNA synthesis, Biochemistry 35, 2168-2179 (1996). The 18C and 18R oligonucleotides were purchased from Dharmacon Research, Inc. (Lafayette, Colo.). The 18D oligonucleotide was obtained from Integrated DNA Technologies, Inc. (Coralville, Iowa). Neomycin trisulfate trihydrate, the free base of tobramycin, paromomycin sulfate, and kanamycin B sulfate were obtained from Fluka, while kanamycin A monosulfate and ribostamycin sulfate dihydrate were obtained from Sigma.
The RNase H activity of RT was assayed in a 10 μl reaction mixture containing 10 mM PIPES (pH 6.0) and 5 mM MgCl2. Ten pmol of either 18C or 18R were ^32P-labeled at the 5′ end using T4 polynucleotide kinase. For the cleavage experiments, different aminoglycosides were mixed with 0.5 μM of target duplex. A small amount of RT, 0.1 μg, was then added to initiate the cleavage reaction. After incubation at 37° C. for 30 min, the reaction was stopped by addition of 3 M urea containing a mixture of bromophenol blue and xylene cyanol. Denaturation of the 18C-18R duplex required the addition of 5 M urea as well as heating at 95° C. for 5 min prior to gel loading. The cleavage products were resolved in a 10% polyacrylamide gel containing 8 M urea. The gels were subsequently analyzed using a phosphoimager (Molecular Dynamics, Inc.).

18C-18D duplex = test: UV melting (thermal denaturation) and ΔTm analysis, 18C-18D duplex; format: binding, HIV-1; conditions: for Ka (ΔTm-derived association constant): extrapolated to 25° C.; for enhancement of thermal stability of the duplex (ΔTm): 18C-18D, drug to duplex ratio (rdup) 3.0, FIG. 3b
Protocol: All UV absorbance experiments were conducted on an AVIV Model 14DS Spectrophotometer (Aviv Associates; Lakewood, N.J.) equipped with a thermoelectrically controlled cell holder. A quartz cell with a 1 cm pathlength was used for all the absorbance studies. Absorbance versus temperature profiles were measured at 274 nm with a 6 sec averaging time. The temperature was raised in 0.5° C. increments, and the samples were allowed to equilibrate for 1 min at each temperature setting. In these thermal denaturation studies, 18C-18R and 18C-18D solutions were […] in duplex and contained aminoglycoside at concentrations ranging from 0 to 12 μM. The duplex solutions were preheated for 5 min at 85° C. and then cooled to room temperature prior to addition of the drug. The buffer solutions for the UV melting experiments contained 10 mM PIPES (pH 6.0) and 5 mM MgCl2. For each optically detected transition, the melting temperature (Tm) was determined. Marky, L. A. & Breslauer, K. J. Calculating thermodynamic data for transitions of any molecularity from equilibrium melting curves, Biopolymers 26, 1601-1620 (1987).
The ΔTm method described below was used to derive aminoglycoside-duplex association constants (Ka). Measured aminoglycoside-induced changes in the thermal stability of the host duplexes (FIG. 3) were used to estimate the apparent drug-duplex association constants at Tm (KTm) from the following expression (Crothers, D. M. Statistical thermodynamics of nucleic acid melting transitions with coupled binding equilibria, Biopolymers 10, 2147-2160 (1971)): [formula]
In this expression, TmO and Tm are the melting temperatures of the drug-free and drug-bound duplex, respectively, n is the number of drug molecules bound per duplex, ΔHdup is the enthalpy change for the melting of the duplex in the absence of bound drug, and L is the free drug concentration at Tm (which can be estimated by one half the total drug concentration). Values of ΔHdup for the 18C-18R and 18C-18D duplexes were determined from the shapes of their UV melting profiles using the following relationship (Marky, L. A. & Breslauer, K. J. Calculating thermodynamic data for transitions of any molecularity from equilibrium melting curves, Biopolymers 26, 1601-1620 (1987)): [formula]
where α is the fraction of single strand. This calculation yielded ΔHdup values of 157.8 kcal/mol for the 18C-18R duplex and 130.3 kcal/mol for the 18C-18D duplex. For meaningful comparisons, the calculated apparent binding constants at Tm should be extrapolated to a common reference temperature using the standard relationship: [formula]
where ΔHb is the enthalpy of drug binding.

| Compound | hierarchy of the extent of inhibition of RT-induced cleavage [1] | inhibition of RT-induced cleavage at the primary site ([1]; neomycin to binding site ratio of 1 (stoichiometric concentration)) | inhibition of RT-induced cleavage at the primary site ([1]; neomycin to binding site ratio of 5) | difference in affinity, neomycin greater than paromomycin (18C-18D duplex; 18C-18D duplex) | Ka (ΔTm-derived association constant) (18C-18D duplex; 18C-18D duplex) | enhancement of thermal stability of the duplex (ΔTm) (18C-18D duplex) |
| --- | --- | --- | --- | --- | --- | --- |
| Neomycin trisulfate trihydrate | neomycin>paromomycin>tobramycin>kanamycin B>ribostamycin>>kanamycin A | 80% | total inhibition | 9 fold | (1.7 ± 0.3) × 10^6 M^−1 | 4.1 °C |
| NC[C@@H]1O[C@H](O[C@H]2[C@@H](O)[C@H](O[C@@H]3[C@@H](O)[C@H](N)C[C@H](N)[C@H]3O[C@H]3O[C@H](CO)[C@@H](O)[C@H](O)[C@H]3N)O[C@@H]2CO)[C@H](N)[C@@H](O)[C@@H]1O [paromomycin, paromomycin sulfate] | neomycin>paromomycin>tobramycin>kanamycin B>ribostamycin>>kanamycin A | – | – | – | (1.9 ± 0.8) × 10^5 M^−1 | 1.1 °C |
